We go through 16 compounds from patent US20260085062A1, “NOVEL COMPOUNDS AS CK2 INHIBITORS” (Cambridge Enterprise Limited, priority 2022, published 2026).

One assay concerns the target T1, CK2α (Homo sapiens, UniProt P68400).
T1 construct: CK2α (residues 2-329) was produced in Escherichia coli BL21 (DE3) for kinase activity screening; His6 (N, cleaved yes); made in house; host or cells: Escherichia coli BL21 (DE3)
T1 sequence (P68400 2-329): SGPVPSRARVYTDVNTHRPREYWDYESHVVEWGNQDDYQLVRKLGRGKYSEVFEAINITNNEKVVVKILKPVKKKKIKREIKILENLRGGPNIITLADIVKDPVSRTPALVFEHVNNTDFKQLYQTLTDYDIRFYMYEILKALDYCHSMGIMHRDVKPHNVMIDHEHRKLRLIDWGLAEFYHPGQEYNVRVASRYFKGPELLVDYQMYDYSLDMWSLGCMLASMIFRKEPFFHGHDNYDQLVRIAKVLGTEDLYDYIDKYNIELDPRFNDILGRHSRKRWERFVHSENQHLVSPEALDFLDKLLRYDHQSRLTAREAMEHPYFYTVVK
The assay is described as follows: Biochemical assay for inhibitors of CK2α kinase activity (ADP-Glo). To be noted: 0.2 nM CK2α, 50 μM peptide substrate, 15 μM ATP, read-out: Assay 1: CK2α Enzyme IC50. The method, then:
The inhibitory activity of putative kinase inhibitors and the potency of selected compounds were determined using ADP-Glo™ assay. The kinase reaction was performed in the presence of excess peptide substrate and ATP at a concentration equivalent to Km. Upon termination of the kinase reaction, remaining ATP was depleted leaving only ADP reaction product, which was converted back to ATP with a coupled luciferin/luciferase reaction. The luminescent output from the coupled reaction was quantified and correlated with the kinase activity. […] Single colonies of the cells were grown in 6×1 L of 2×TY with 100 μg/mL ampicillin at 37° C. […] The cells were incubated overnight at 25° C. then harvested by centrifugation at 4,000 g for 20 minutes. The cell pellets were suspended in 20 mM Tris, 500 mM NaCl, pH 8.0 and lysed using a high pressure homogenizer. Protease inhibitor cocktail tablets (one tablet per 50 mL extract; Roche Diagnostics) and DNase I were then added. The crude cell extract was then centrifuged at 10,000 g for 45 minutes, the supernatant was filtered with a 0.22 μm filter. The soluble supernatant was applied on a Ni Sepharose Fast Flow6 column at pH 8.0, washed and eluted in 20 mM Tris pH 8.0, 500 mM NaCl, 200 mM imidazole. […] The cleaved protein was further purified on a Sepharose Q HP anion-exchange column and the main peak fraction from this column was further purified by gel filtration on a Superdex 75 16/60 HiPrep column equilibrated with Tris 20 mM, pH 8.0, 500 mM NaCl. Pure protein was concentrated to 15 mg/mL and flash frozen in liquid nitrogen. […] The assay was conducted as follows: • 1. […] After 120 minutes, the reaction was stopped by addition of 5 pl ADP-Glo reagent (Promega V9102) and the plate incubated at RT for a further 60 minutes. • 5. 10 μL of Kinase Detection reagent (Promega V9102) was added to assay plate and incubated for a further 30 minutes prior to reading luminescence on an Envision (Perkin-Elmer). Data was analysed to calculate compound IC50and Ki as follows: • 1. […] Percent activity was calculated for each well using: (Test well reading−MEAN100%inhibition control wells)/(MEAN0% inhibition control wells−MEAN100%inhibition control wells). • 5. Morrison Ki was determined using Morrison Ki equation (XL-fit).

In another assay the target is T2, intracellular CK2α (Homo sapiens, UniProt P19784).
T2 construct: host or cells: HCT116 (ATCC CCL-247)
T2 sequence (P19784 whole entry): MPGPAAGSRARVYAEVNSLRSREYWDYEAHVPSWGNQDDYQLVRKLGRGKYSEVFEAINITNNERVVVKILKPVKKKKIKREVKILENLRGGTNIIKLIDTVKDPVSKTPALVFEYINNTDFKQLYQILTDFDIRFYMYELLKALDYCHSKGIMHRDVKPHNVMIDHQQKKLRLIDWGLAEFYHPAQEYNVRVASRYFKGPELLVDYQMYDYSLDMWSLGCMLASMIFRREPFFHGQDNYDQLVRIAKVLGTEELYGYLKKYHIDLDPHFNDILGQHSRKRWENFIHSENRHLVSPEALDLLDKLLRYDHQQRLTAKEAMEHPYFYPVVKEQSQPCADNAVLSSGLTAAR
The assay is described as follows: Cell-based NanoBRET assay for inhibitor binding to intracellular CK2α. The following applies: HCT116 cells transiently transfected with CSNK2A2-NanoLuc fusion vector; Tracer K-5; 2 h; read-out: Assay 3: NanoBRET ™ assay for binding to intracellular CK2α. The method, then: This assay used the NanoBRET™ System (Promega), an energy transfer technique designed to measure molecular proximity in living cells. The assay measured the apparent affinity of test compounds by competitive displacement of a NanoBRET™ tracer reversibly bound to a NanoLucR luciferase CK2α fusion protein in cells. A fixed concentration of tracer was added to cells expressing the desired NanoLucR-CK2α fusion protein to generate a BRET reporter complex. […] Donor emission wavelength (450 nm) and acceptor emission wavelength (610 nm or 630 nm) were measured on the Envision (Perkin-Elmer) and BRET ratio calculated for data analysis: BRET Ratio=(Acceptorsample/Donorsample)×1,000. • 7.

A further assay concerns the target T3, CLK2 (Homo sapiens, UniProt P49760).
T3 construct: purchased Carna Biosciences 04-127
Nature of the assay: Biochemical assay for inhibitors of CLK2 kinase activity (ADP-Glo). To be noted: 20 nM CLK2, 50 μM peptide substrate, 100 μM ATP, read-out: Assay 2: CLK2 Enzyme IC50. The method, then: The inhibitory activity of putative kinase inhibitors and the potency of selected compounds were determined using ADP-GloTM assay. The kinase reaction was performed in the presence of excess peptide substrate and ATP at a concentration equivalent to Km. Upon termination of the kinase reaction, remaining ATP was depleted leaving only ADP reaction product, which was converted back to ATP with a coupled luciferin/luciferase reaction. The luminescent output from the coupled reaction was quantified and correlated with the kinase activity. […] The assay was conducted as follows: • 1. […] After 120 minutes, the reaction was stopped by addition of 5 pl ADP-Glo reagent (Promega V9102) and the plate incubated at RT for a further 60 minutes. • 5. 10 μL of Kinase Detection reagent (Promega V9102) was added to assay plate and incubated for a further 30 minutes prior to reading luminescence on an Envision (Perkin-Elmer). Data was analysed to calculate compound IC50and Ki as follows: • 1. […] Morrison Ki was determined using Morrison Ki equation (XL-fit).

T3 sequence (P49760 whole entry): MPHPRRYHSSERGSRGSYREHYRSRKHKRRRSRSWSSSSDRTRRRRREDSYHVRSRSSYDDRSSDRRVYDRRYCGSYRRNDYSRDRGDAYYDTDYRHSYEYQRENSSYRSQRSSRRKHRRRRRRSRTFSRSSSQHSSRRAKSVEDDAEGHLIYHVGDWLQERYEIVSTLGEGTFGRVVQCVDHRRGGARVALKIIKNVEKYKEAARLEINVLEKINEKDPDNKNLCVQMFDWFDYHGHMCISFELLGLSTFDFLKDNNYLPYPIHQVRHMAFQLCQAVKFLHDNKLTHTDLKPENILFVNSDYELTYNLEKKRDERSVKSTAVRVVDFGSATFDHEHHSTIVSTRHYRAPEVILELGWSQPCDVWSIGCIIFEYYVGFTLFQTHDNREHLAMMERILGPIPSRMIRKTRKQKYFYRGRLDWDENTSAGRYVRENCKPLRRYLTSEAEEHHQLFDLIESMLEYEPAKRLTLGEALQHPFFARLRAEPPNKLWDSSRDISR

Consider `O=C(CCNCc1ccc(OC(F)(F)F)c(Cl)c1)NCCCNc1cc(-c2cc[nH]c(=O)c2)cc2[nH]ncc12` [Example 31, 3-((3-chloro-4-(trifluoromethoxy)benzyl)amino)-N-(3-((6-(2-oxo-1,2-dihydropyridin-4-yl)-1H-indazol-4-yl)amino)propyl)propanamide], for which the IC50 at CK2α stood at 0.00032 µM; on intracellular CK2α, 0.753 µM; at CLK2, 0.526 µM.
Consider `O=C(CCNCc1ccc(OC(F)(F)F)c(Cl)c1)NCCCNc1cc(-c2cnns2)cc2[nH]ncc12` [Example 32, N-(3-((6-(1,2,3-thiadiazol-5-yl)-1H-indazol-4-yl)amino)propyl)-3-((3-chloro-4-(trifluoromethoxy)benzyl)amino)propanamide], for which the values for the IC50 on CK2α, on intracellular CK2α and on CLK2 were 0.00047 µM, 0.0177 µM and 0.0759 µM, respectively.
For the compound `O=C(CCNCc1ccc(OC(F)(F)F)c(Cl)c1)NCCCNc1cc(-n2cnnc2)cc2[nH]ncc12` [Example 33, N-(3-((6-(4H-1,2,4-triazol-4-yl)-1H-indazol-4-yl)amino)propyl)-3-((3-chloro-4-(trifluoromethoxy)benzyl)amino)propanamide], the IC50 on CK2α turned out to be 0.00048 µM; on intracellular CK2α, 0.452 µM; at CLK2, 0.0778 µM.
On the same counts, the results for `O=C(CCNCc1n[nH]c(-c2ccccc2)c1Cl)NCCCNc1cc(-n2cnnc2)cc2[nH]ncc12` [Example 34, N-(3-((6-(4H-1,2,4-triazol-4-yl)-1H-indazol-4-yl)amino)propyl)-3-(((4-chloro-5-phenyl-1H-pyrazol-3-yl)methyl)amino)propanamide] are 0.00332 µM, 9.89 µM and 0.0708 µM.
On the same counts, the results for `O=C(CCNCc1cccc(CO)c1)NCCCNc1cc(-n2cnnc2)cc2[nH]ncc12` [Example 35, N-(3-((6-(4H-1,2,4-triazol-4-yl)-1H-indazol-4-yl)amino)propyl)-3-((3-(hydroxymethyl)benzyl)amino)propanamide] are 0.0175 µM, over 50 µM and 0.112 µM.
In the same order, the values of `Cn1c(CNCCC(=O)NCCCNc2cc(-n3cnnc3)cc3[nH]ncc23)cc2ccc(Cl)cc21` [Example 36, N-(3-((6-(4H-1,2,4-triazol-4-yl)-1H-indazol-4-yl)amino)propyl)-3-(((6-chloro-1-methyl-1H-indol-2-yl)methyl)amino)propanamide] are 0.00139 µM, 1.4 µM and 0.0489 µM.
Turning to `O=C(CCNCc1cc2ccc(Cl)cc2[nH]1)NCCCNc1cc(-n2cnnc2)cc2[nH]ncc12` [Example 37, N-(3-((6-(4H-1,2,4-triazol-4-yl)-1H-indazol-4-yl)amino)propyl)-3-(((6-chloro-1H-indol-2-yl)methyl)amino)propanamide], the IC50 at CK2α turned out to be 0.00078 µM; on intracellular CK2α, 0.96 µM; on CLK2, 0.0307 µM.
On the same counts, the results for `Cn1c(CNCCC(=O)NCCCNc2cc(-n3cnnc3)cc3[nH]ncc23)cc2cc(C(F)(F)F)ccc21` [Example 38, N-(3-((6-(4H-1,2,4-triazol-4-yl)-1H-indazol-4-yl)amino)propyl)-3-(((1-methyl-5-(trifluoromethyl)-1H-indol-2-yl)methyl)amino)propanamide] are 0.00053 µM, 0.792 µM and 0.121 µM.
On the same counts, the results for `N#Cc1cc(CNCCC(=O)NCCCNc2cc(-n3cnnc3)cc3[nH]ncc23)ccc1OC1CCC1` [Example 39, N-(3-((6-(4H-1,2,4-triazol-4-yl)-1H-indazol-4-yl)amino)propyl)-3-((3-cyano-4-cyclobutoxybenzyl)amino)propanamide] are 0.00028 µM, 2.08 µM and 0.0633 µM.
`O=C(CCNCc1cccc(CCO)c1)NCCCNc1cc(-n2cnnc2)cc2[nH]ncc12` [Example 40, N-(3-((6-(4H-1,2,4-triazol-4-yl)-1H-indazol-4-yl)amino)propyl)-3-((3-(2-hydroxyethyl)benzyl)amino)propanamide]: the figures for the IC50 at CK2α, on intracellular CK2α and on CLK2 were 0.00906 µM, over 50 µM and 0.0875 µM, respectively.
For the compound `O=C(CCNCc1ccc(OC2CCC2)c(CO)c1)NCCCNc1cc(-n2cnnc2)cc2[nH]ncc12` [Example 41, N-(3-((6-(4H-1,2,4-triazol-4-yl)-1H-indazol-4-yl)amino)propyl)-3-((4-cyclobutoxy-3-(hydroxymethyl)benzyl)amino)propanamide], the values for the IC50 at CK2α, on intracellular CK2α and at CLK2 were 0.00058 µM, 7.62 µM and 0.0781 µM, respectively.
In the same order, the values of `O=C(CCNCc1cccc(OCCO)c1)NCCCNc1cc(-n2cnnc2)cc2[nH]ncc12` [Example 42, N-(3-((6-(4H-1,2,4-triazol-4-yl)-1H-indazol-4-yl)amino)propyl)-3-((3-(2-hydroxyethoxy)benzyl)amino)propanamide] are 0.00694 µM, over 50 µM and 0.0838 µM.
On the same counts, the results for `O=C(CCNCc1cc(Cl)cc(CO)c1)NCCCNc1cc(-n2cnnc2)cc2[nH]ncc12` [Example 43, N-(3-((6-(4H-1,2,4-triazol-4-yl)-1H-indazol-4-yl)amino)propyl)-3-((3-chloro-5-(hydroxymethyl)benzyl)amino)propanamide] are 0.00062 µM, 20.2 µM and 0.0384 µM.
On the same counts, the results for `O=C(CCNCc1ccc(OC(F)(F)F)c(CO)c1)NCCCNc1cc(-n2cnnc2)cc2[nH]ncc12` [Example 44, N-(3-((6-(4H-1,2,4-triazol-4-yl)-1H-indazol-4-yl)amino)propyl)-3-((3-(hydroxymethyl)-4-(trifluoromethoxy)benzyl)amino)propanamide] are 0.00146 µM, 16.8 µM and 0.0396 µM.
With `N#Cc1cc(CNCCC(=O)NCCCNc2cc(-n3cnnc3)cc3[nH]ncc23)ccc1C1CC1` [Example 45, N-(3-((6-(4H-1,2,4-triazol-4-yl)-1H-indazol-4-yl)amino)propyl)-3-((3-cyano-4-cyclopropylbenzyl)amino)propanamide], the values for the IC50 on CK2α, at intracellular CK2α and on CLK2 were 0.00095 µM, 6.38 µM and 0.123 µM, respectively.
Consider `N#Cc1cc(CNCCC(=O)NCCCNc2cc(-n3cnnc3)cc3[nH]ncc23)ccc1OC(F)(F)F` [Example 46, N-(3-((6-(4H-1,2,4-triazol-4-yl)-1H-indazol-4-yl)amino)propyl)-3-((3-cyano-4-(trifluoromethoxy)benzyl)amino)propanamide], for which the IC50 on CK2α turned out to be 0.00265 µM; on intracellular CK2α, 13.4 µM; at CLK2 it was 0.237 µM.
